From patent US10322131B2, “Hydroxyacid derivatives, a process for their preparation and pharmaceutical compositions containing them” (LES LABORATOIRES SERVIER, priority 2015, dated 2019)
Like-named read-outs stand apart in the source and are kept apart here.

Key:
Mcl-1 protein = Mcl-1 protein (Homo sapiens, UniProt Q07820); test: Inhibition of Mcl-1 by the fluorescence polarisation technique; type: binding
Protocol: The relative binding potency of each compound was determined via Fluorescence Polarisation (FP). The method utilised a Fluorescein labelled ligand (Fluorescein-βAla-Ahx-A-REIGAQLRRMADDLNAQY-OH; mw 2,765) which binds to the Mcl-1 protein (such that Mcl-1 corresponds to the UniProtKB® primary accession number: Q07820) leading to an increased anisotropy measured in milli-polarisation (mP) units using a reader. The addition of a compound which binds competitively to the same site as the ligand will result in a greater proportion of unbound ligand in the system indicated by a decrease in mP units.
An 11 point serial dilution of each compound was prepared in DMSO and 2 μl transferred into flat bottomed, low binding, 384-well plate (final DMSO concentration 5%). 38 μl of buffer (10 mM 4-(2-hydroxyethyl)-1-piperazineethanesulfonic acid [HEPES], 150 mM NaCl, 0.05% Tween 20, pH 7.4), containing the Fluorescein labelled ligand (final concentration 1 nM) and Mcl-1 protein (final concentration 5 nM) was then added.
Assay plates were incubated ˜2 hours at r.t. before FP was measured on a Biomek Synergy2 reader (Ex. 528 nm, Em. 640 nm, Cut off 510 nm) and mP units calculated. The binding of increasing doses of test compound was expressed as a percentage reduction in mP compared to a window established between ‘5% DMSO only’ and ‘100% inhibition’ controls. 11-point dose response curves were plotted with XL-Fit software using a 4-Parameter Logistic Model (Sigmoidal Dose-Response Model) and the inhibitory concentrations that gave a 50% reduction in mP (IC50) were determined.

H929 cells = test: In vitro cytotoxicity (MTT) on H929 multiple myeloma tumour line; type: cell-based; conditions: Microculture Tetrazolium Assay
Protocol: The cytotoxicity studies were carried out on the H929 multiple myeloma tumour line.
The cells are distributed onto microplates and exposed to the test compounds for 48 hours.
The cell viability is then quantified by a colorimetric assay, the Microculture Tetrazolium Assay (Cancer Res., 1987, 47, 939-942).

[1] = fluorescence polarisation test, Fluorescein labelled ligand 1 nM, Mcl-1 protein 5 nM, ~2 hours at r.t., read-out: IC50 (M) Mcl-1 FP
[2] = Homo sapiens, NCI-H929, exposed 48 hours

Mcl-1 protein, sequence (Q07820 whole entry): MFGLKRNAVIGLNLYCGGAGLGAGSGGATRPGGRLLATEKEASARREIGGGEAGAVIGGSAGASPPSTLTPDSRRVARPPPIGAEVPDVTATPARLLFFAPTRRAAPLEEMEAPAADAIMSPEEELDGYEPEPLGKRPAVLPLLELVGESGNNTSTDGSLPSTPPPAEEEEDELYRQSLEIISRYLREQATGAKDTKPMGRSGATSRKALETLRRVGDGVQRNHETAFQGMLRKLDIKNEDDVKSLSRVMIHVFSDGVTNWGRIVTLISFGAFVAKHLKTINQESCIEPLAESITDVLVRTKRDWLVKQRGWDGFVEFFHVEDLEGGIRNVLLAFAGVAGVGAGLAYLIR

Compound	IC50 (Mcl-1 protein; [1]) [M]	IC50 (H929 cells; [2]) [nM]	IC50 (H929 cells; exposed 48 hours) [nM]	IC50 (Mcl-1 protein) [M]
Cc1c(-c2c(-c3ccc(F)cc3)sc3ncnc(OC(Cc4ccccc4OCc4ccnc(-c5ccc(OCC(O)CO)cc5)n4)C(=O)O)c23)ccc(OCCN2CCN(C)CC2)c1Cl [Example 15, (2R)-2-{[(5Sa)-5-{3-chloro-2-methyl-4-[2-(4-methylpiperazin-1-yl)ethoxy]phenyl}-6-(4-fluorophehenyl)thieno[2,3-d]pyrimidin-4-yl]oxy}-3-[2-({2-[4-(2,3-dihydroxypropoxy)phenyl]pyrimidin-4-yl}methoxy)phenyl]propanoic acid]	2.75e-09	3.59		
COC1OC(COc2cccc(-c3nccc(COc4ccccc4CC(Oc4ncnc5sc(-c6ccc(F)cc6)c(-c6ccc(OCCN7CCN(C)CC7)c(Cl)c6C)c45)C(=O)O)n3)c2)C(O)C(O)C1O [Example 16, methyl 6-O-{3-[4-({2-[(2R)-2-carboxy-2-{[(5Sa)-5-{3-chloro-2-methyl-4-[2-(4-methylpiperazin-1-yl)ethoxy]phenyl}-6-(4-flurophenyl)thieno[2,3-d]pyrimidin-4-yl]oxy}ethyl]phenoxy}methyl)pyrimidin-2-yl]phenyl}-α-D-mannopyranoside]	7.2e-09		37.1	
COC1OC(COc2cccc(-c3nccc(COc4ccccc4CC(Oc4ncnc5sc(-c6ccc(F)cc6)c(-c6ccc(OCCN7CCN(C)CC7)c(Cl)c6C)c45)C(=O)O)n3)c2)C(OC)C(OC)C1OC [Example 17, methyl 6-O-{3-[4-({2-[(2R)-2-carboxy-2-{[(5Sa)-5-{3-chloro-2-methyl-4-[2-(4methylpiperazin-1-yl)ethoxy]phenyl}-6-(4-fluorophenyl)thieno[2,3-d]pyrimidin-4-yl]oxy}ethyl]phenoxy}methyl)pyrimidin-2-yl]phenyl}-2,3,4-tri-O-methyl-α-D-mannopyranoside]	4.8e-09	3.03		
COC1OC(COc2ccc(-c3nccc(COc4ccccc4CC(Oc4ncnc5sc(-c6ccc(F)cc6)c(-c6ccc(OCCN7CCN(C)CC7)c(Cl)c6C)c45)C(=O)O)n3)cc2)C(O)C(O)C1O [Example 18, methyl 6-O-{4-[4-({2-[(2R)-2-carboxy-2-{[(5Sa)-5-{3-chloro-2-methyl-4-[2-(4-methylpiperazin-1-yl)ethoxy]phenyl}-6-(4-flurophenyl)thieno[2,3-d]pyrimidin-4-yl]oxy}ethyl]phenoxy}methyl)pyrimidin-2-yl]phenyl}-α-D-mannopyranoside]	4.1e-09		13.9	
COC1OC(COc2ccc(-c3nccc(COc4ccccc4CC(Oc4ncnc5sc(-c6ccc(F)cc6)c(-c6ccc(OCCN7CCN(C)CC7)c(Cl)c6C)c45)C(=O)O)n3)cc2)C(OC)C(OC)C1OC [Example 19, methyl 6-O-{4-[4-({2-[(2R)-2-carboxy-2-{[(5Sa)-5-{3-chloro-2-methyl-4-[2-(4-methylpiperazin-1-yl)ethoxy]phenyl}-6-(4-fluorophenyl)thieno[2,3-d]pyrimidin-4-yl]oxy}ethyl]phenoxy}methyl)pyrimidin-2-yl]phenyl}-2,3,4-tri-O-methyl-α-D-mannopyranoside]	4.95e-09	2.47		
Cc1c(-c2c(-c3ccc(F)cc3)sc3ncnc(OC(Cc4ccccc4OCc4ccnc(-c5ccc(OCC6OC(O)C(O)C(O)C6O)cc5)n4)C(=O)O)c23)ccc(OCCN2CCN(C)CC2)c1Cl [Example 20, 6-O-{4-[4-({2-[(2R)-2-carboxy-2-{[(5Sa)-5-{3-chloro-2-methyl-4-[2-(4-methylpiperazin-1-yl)ethoxy]phenyl}-6-(4-fluorophenyl)thieno[2,3-d]pyrimidin-4-yl]oxy}ethyl]phenoxy}methyl)pyrimidin-2-yl]phenyl}-D-mannopyranose]	4.35e-09	56.8		
Cc1c(-c2c(-c3ccc(F)cc3)sc3ncnc(O[C@H](Cc4ccccc4OCc4ccnc(-c5ccccc5OC[C@@H](O)[C@@H](O)[C@H](O)[C@H](O)C(=O)O)n4)C(=O)O)c23)ccc(OCCN2CCN(C)CC2)c1Cl [Example 21]	4.85e-09		> 150	
Cc1c(-c2c(-c3ccc(F)cc3)sc3ncnc(OC(Cc4ccccc4OCc4ccnc(-c5ccc(COC6(C)OC7OC(CO)C(O)C(O)C7O6)cc5)n4)C(=O)O)c23)ccc(OCCN2CCN(C)CC2)c1Cl [Example 22, 1,2-O-[(1R)-1-({4-[4-({2-[(2R)-2-carboxy-2-{[(5Sa)-5-{3-chloro-2-methyl-4-[2-(4-methylpiperazin-1-yl)ethoxy]phenyl}-6-(4-fluorophenyl)thieno[2,3-d]pyrimidin-4-yl]oxy}ethyl]phenoxy}methyl)pyrimidin-2-yl]benzyl}oxy)ethylidene]-β-D-mannopyranose]	5.5e-09	5.97		
Cc1c(-c2c(-c3ccc(F)cc3)sc3ncnc(OC(Cc4ccccc4OCc4ccnc(-c5ccc(COC6OC(CO)C(O)C(O)C6O)cc5)n4)C(=O)O)c23)ccc(OCCN2CCN(C)CC2)c1Cl [Example 23, (2R)-2-{[(5Sa)-5-{3-chloro-2-methyl-4-[2-(4-methylpiperazin-1-yl)ethoxy]phenyl}-6-(4-flurophenyl)thieno[2,3-d]pyrimidin-4-yl]oxy}-3-{2-[(2-{4-[(α-D-mannopyranosyloxy)methyl]phenyl}pyrimidin-4-yl)methoxy]phenyl}propanoic acid]	2.7e-09		39.7	
Cc1c(-c2c(-c3ccc(F)cc3)sc3ncnc(OC(Cc4ccccc4OCc4ccnc(-c5ccc(CCO)cc5)n4)C(=O)O)c23)ccc(OCCN2CCN(C)CC2)c1Cl [Example 24, (2R)-2-{[(5Sa)-5-{3-chloro-methyl-4-[2-(4methylpiperazin-1-yl)ethoxy]phenyl}-6-(4-fluorophenyl)thieno[2,3-d]pyrimidin-4-yl]oxy}-3-[2-({2-[4-(2-hydroxyethyl)phenyl]pyrimidin-4-yl}methoxy)phenyl]propanoic acid]	3.15e-09	2.55		
Cc1c(-c2c(-c3ccc(F)cc3)sc3ncnc(OC(Cc4ccccc4OCc4ccnc(-c5ccccc5OCC(O)CO)n4)C(=O)O)c23)ccc(OCCN2CCN(C)CC2)c1Cl [Example 25, (2R)-2-{[(5Sa)-5-{3-chloro-2-methyl-4-[2-(4-methylpiperazin-1-yl)ethoxy]phenyl}-6-(4-fluorophenyl)thieno[2,3-d]pyrimidin-4-yl]oxy}-3-[2-({2-[2-(2,3-dihydroxypropoxy)phenyl]pyrimidin-4-}methoxy)phenyl]propanoic acid]	3.45e-09	10		
Cc1c(-c2c(-c3ccc(F)cc3)sc3ncnc(OC(Cc4ccccc4OCc4ccnc(-c5ccccc5OCCO)n4)C(=O)O)c23)ccc(OCCN2CCN(C)CC2)c1Cl [Example 26, (2R)-2-{[(5Sa)-5-{3-chloro-2-methyl-4-[2-(4methylpiperazin-1-yl)ethoxy]phenyl}-6-(4-fluorophenyl)thieno[2,3-d]pyrimidin-4-yl]oxy}-3-[2-({2-[2-(2-hydroxyethoxy)phenyl]pyrimidin-4-yl}methoxy)phenyl]propanoic acid]	3.45e-09	1.72		
Cc1c(-c2c(-c3ccc(F)cc3)sc3ncnc(OC(Cc4ccccc4OCc4ccnc(-c5ccccc5COCC(O)CO)n4)C(=O)O)c23)ccc(OCCN2CCN(C)CC2)c1Cl [Example 27, (2R)-2-{[(5Sa)-5-{3-chloro-2-methyl-4-[2-(4-methylpiperazin-1-yl)ethoxy]phenyl}-6-(4-fluorophenyl)thieno[2,3-d]pyrimidin-4-yl]oxy}-3-{2-[(2-{2-[(2,3-dihydroxypropoxy)methyl]phenyl}pyrimidin-4-yl)methoxy]phenyl}propanoic acid]	2.2e-09	13.9		
Cc1c(-c2c(-c3ccc(F)cc3)sc3ncnc(OC(Cc4ccccc4OCc4ccnc(-c5cccc(OP(=O)(O)O)c5)n4)C(=O)O)c23)ccc(OCCN2CCN(C)CC2)c1Cl [Example 28, (2R)-2-{[(5Sa)-5-{3-chloro-2-methyl-4-[2-(4-methylpiperazin-1-yl)ethoxy]phenyl}-6-(4-fluorophenyl)thieno[2,3-d]pyrimidin-4-yl]oxy}-3-[2-({2-[3-(phosphonooxy)phenyl]pyrimidin-4-yl}methoxy)phenyl]propanoic acid]		48.4		4.15e-09
Cc1c(-c2c(-c3ccc(F)cc3)sc3ncnc(OC(Cc4ccccc4OCc4ccnc(-c5ccc(OP(=O)(O)O)cc5)n4)C(=O)O)c23)ccc(OCCN2CCN(C)CC2)c1Cl [Example 29, 4-[4-({2-[(2R)-2-carboxy-2-{[(5Sa)-5-{3-chloro-2-methyl-4-[2-(4-methylpiperazin-1-yl)ethoxy]phenyl}-6-(4-fluorophenyl)thieno[2,3-d]pyrimidin-4-yl]oxy}ethyl]phenoxy}methyl)pyrimidin-2-yl]phenyl phosphate]		22.7		4.6e-09
